Results reported in ChEMBL document CHEMBL1201862, “PubChem BioAssay data set” (2004).
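Cells were grown in 96-well plates and exposed to each compound for 48 hours at five concentrations; endpoints were interpolated linearly between bracketing concentrations, or set to the highest concentration if not reached. At the GI50, growth is halved.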 The source made the active and inactive calls. Cut-off read from the data, not from the text of the source: active = GI50 up to about 1.1 µM and inactive = higher.

Legend:
Assay in all cases: inhibition of tumour cell growth, NCI panel, 48 h
[1] = test system: OVCAR-8
[2] = test system: Hs-578T
[3] = test system: RPMI-8226
[4] = test system: OVCAR-5
[5] = test system: UACC-257
[6] = test system: DU-145
[7] = test system: SNB-75
[8] = test system: HOP-92
[9] = test system: SNB-19
[10] = test system: SK-OV-3
[11] = test system: SW-620
[12] = test system: M14
[13] = test system: NCI-H23
[14] = test system: 786-0
[15] = test system: HOP-62
[16] = test system: CAKI-1
[17] = test system: HCC 2998
[18] = test system: SN12C
[19] = test system: A498
[20] = test system: IGROV-1
[21] = test system: EKVX
[22] = test system: HCT-15
[23] = test system: UO-31
[24] = test system: NCI/ADR-RES
[25] = test system: SK-MEL-28
[26] = test system: A549
[27] = test system: T47D
[28] = test system: BT-549
[29] = test system: MDA-MB-435
[30] = test system: LOX IMVI
[31] = test system: MDA-N
[32] = test system: SK-MEL-5
[33] = test system: MDA-MB-231
[34] = test system: UACC-62
[35] = test system: COLO 205
[36] = test system: ACHN
[37] = test system: MCF7
[38] = test system: OVCAR-3
[39] = test system: HL-60
[40] = test system: OVCAR-4
[41] = test system: MOLT-4
[42] = test system: SF-268
[43] = test system: KM12
[44] = test system: NCI-H522
[45] = test system: U-251
[46] = test system: K562
[47] = test system: TK-10
[48] = test system: SF-295
[49] = test system: Malme-3M
[50] = test system: RXF 393
[51] = test system: NCI-H226
[52] = test system: HCT-116
[53] = test system: HT-29
[54] = test system: PC-3
[55] = test system: NCI-H460
[56] = test system: SR
[57] = test system: SF-539
[58] = test system: SK-MEL-2

In the case of `CC(C)(C)CC(C)(C)c1cc(O)c(O)c(CN2CCCCC2)c1`, the GI50 [1] is reported as 15.6 µM (inactive), the GI50 [2] is reported as 15.6 µM (inactive) and the GI50 [3] is reported as 12.8 µM (inactive). The GI50 [4] was 17.4 µM (inactive), the GI50 [5] was 13.3 µM (inactive) and the GI50 [6] was 14.5 µM (inactive). The GI50 [7] was 17.7 µM (inactive), the GI50 [8] was 17.5 µM (inactive) and the GI50 [9] was 15.3 µM (inactive). For the same compound, the GI50 [10] was 19.8 µM (inactive), the GI50 [11] was 13.2 µM (inactive) and the GI50 [12] was 15.6 µM (inactive). For the same compound, the GI50 [13] was 16.1 µM (inactive), the GI50 [14] was 13.4 µM (inactive) and the GI50 [15] was 15.5 µM (inactive). For the same compound, the GI50 [16] was 14.2 µM (inactive), the GI50 [17] was 10.6 µM (inactive) and the GI50 [18] was 15.7 µM (inactive). The GI50 [19] was 14.3 µM (inactive), the GI50 [20] was 17.5 µM (inactive) and the GI50 [21] was 12.7 µM (inactive). The GI50 [22] was 4.01 µM, the GI50 [23] was 13.3 µM (inactive) and the GI50 [24] was 5.09 µM (inactive). The GI50 [25] was 17.7 µM (inactive), the GI50 [26] was 17.1 µM (inactive) and the GI50 [27] was 11.6 µM (inactive). For the same compound, the GI50 [28] was 15.1 µM (inactive), the GI50 [29] was 16.9 µM (inactive) and the GI50 [30] was 12 µM (inactive). The GI50 [31] was 15.1 µM (inactive), the GI50 [32] was 15.6 µM (inactive) and the GI50 [33] was 17.7 µM (inactive). The GI50 [34] was 16.3 µM (inactive), the GI50 [35] was 12.7 µM (inactive) and the GI50 [36] was 12.9 µM (inactive). The GI50 [37] was 12.5 µM (inactive), the GI50 [38] was 14.7 µM (inactive) and the GI50 [39] was 13.3 µM (inactive). For the same compound, the GI50 [40] was 19.2 µM (inactive), the GI50 [41] was 4.35 µM (inactive) and the GI50 [42] was 12.6 µM (inactive). For the same compound, the GI50 [43] was 17.5 µM (inactive), the GI50 [44] was 10.8 µM (inactive) and the GI50 [45] was 11.9 µM (inactive). For the same compound, the GI50 [46] was 4.25 µM (inactive), the GI50 [47] was 16.1 µM (inactive) and the GI50 [48] was 17.5 µM (inactive). For the same compound, the GI50 [49] was 12.8 µM (inactive), the GI50 [50] was 12.8 µM (inactive) and the GI50 [51] was 16.7 µM (inactive). The GI50 [52] was 15.3 µM (inactive), the GI50 [53] was 5.69 µM (inactive) and the GI50 [54] was 13.9 µM (inactive). The GI50 [55] was 11.7 µM (inactive).

For `CC1(C)O[C@H]2Cn3c(c(C#N)c4ccccc43)[C@H]2O1`, the GI50 [2] was > 100 µM (inactive), the GI50 [3] was > 100 µM (inactive) and the GI50 [4] was > 100 µM (inactive). The GI50 [6] was > 100 µM (inactive), the GI50 [56] was > 100 µM (inactive) and the GI50 [7] was 39.8 µM (inactive). The GI50 [8] was > 100 µM (inactive), the GI50 [9] was > 100 µM (inactive) and the GI50 [10] was > 100 µM (inactive). For the same compound, the GI50 [12] was > 100 µM (inactive), the GI50 [13] was > 100 µM (inactive) and the GI50 [14] was > 100 µM (inactive). The GI50 [15] was > 100 µM (inactive), the GI50 [16] was 85.1 µM (inactive) and the GI50 [17] was > 100 µM (inactive). For the same compound, the GI50 [18] was > 100 µM (inactive), the GI50 [20] was > 100 µM (inactive) and the GI50 [21] was > 100 µM (inactive). For the same compound, the GI50 [22] was greater than 100 µM, the GI50 [23] was > 100 µM (inactive) and the GI50 [24] was > 100 µM (inactive). For the same compound, the GI50 [25] was > 100 µM (inactive), the GI50 [26] was > 100 µM (inactive) and the GI50 [27] was > 100 µM (inactive). For the same compound, the GI50 [28] was > 100 µM (inactive), the GI50 [29] was > 100 µM (inactive) and the GI50 [31] was > 100 µM (inactive). The GI50 [57] was > 100 µM (inactive), the GI50 [32] was > 100 µM (inactive) and the GI50 [33] was > 100 µM (inactive). The GI50 [34] was > 100 µM (inactive), the GI50 [35] was > 100 µM (inactive) and the GI50 [36] was > 100 µM (inactive). The GI50 [37] was > 100 µM (inactive), the GI50 [38] was > 100 µM (inactive) and the GI50 [39] was > 100 µM (inactive). For the same compound, the GI50 [40] was > 100 µM (inactive), the GI50 [42] was > 100 µM (inactive) and the GI50 [43] was > 100 µM (inactive). For the same compound, the GI50 [44] was > 100 µM (inactive), the GI50 [45] was > 100 µM (inactive) and the GI50 [47] was > 100 µM (inactive). For the same compound, the GI50 [58] was > 100 µM (inactive), the GI50 [48] was > 100 µM (inactive) and the GI50 [49] was > 100 µM (inactive). The GI50 [52] was > 100 µM (inactive), the GI50 [53] was > 100 µM (inactive) and the GI50 [55] was > 100 µM (inactive).

With `COc1cc(/C=C2/SC(c3ccccc3)N(c3ccc(NC(C)=O)cc3)C2=O)cc(OC)c1OC` (stereo not drawn) the GI50 [1] was > 100 µM (inactive), the GI50 [2] was 35.5 µM (inactive) and the GI50 [3] was 36.8 µM (inactive). For the same compound, the GI50 [4] was > 100 µM (inactive), the GI50 [5] was > 100 µM (inactive) and the GI50 [6] was > 100 µM (inactive). The GI50 [56] was 30.8 µM (inactive), the GI50 [8] was 37.3 µM (inactive) and the GI50 [9] was > 100 µM (inactive). The GI50 [10] was > 100 µM (inactive), the GI50 [11] was > 100 µM (inactive) and the GI50 [12] was > 100 µM (inactive). For the same compound, the GI50 [13] was > 100 µM (inactive), the GI50 [14] was > 100 µM (inactive) and the GI50 [15] was > 100 µM (inactive). For the same compound, the GI50 [16] was > 100 µM (inactive), the GI50 [17] was > 100 µM (inactive) and the GI50 [18] was > 100 µM (inactive). For the same compound, the GI50 [19] was > 100 µM (inactive), the GI50 [21] was > 100 µM (inactive) and the GI50 [22] was greater than 100 µM. For the same compound, the GI50 [23] was 48.8 µM (inactive), the GI50 [24] was > 100 µM (inactive) and the GI50 [25] was > 100 µM (inactive). For the same compound, the GI50 [26] was > 100 µM (inactive), the GI50 [27] was 84.3 µM (inactive) and the GI50 [28] was > 100 µM (inactive). The GI50 [29] was 66.4 µM (inactive), the GI50 [30] was 72.1 µM (inactive) and the GI50 [31] was 82.6 µM (inactive). The GI50 [57] was > 100 µM (inactive), the GI50 [32] was 34.4 µM (inactive) and the GI50 [33] was > 100 µM (inactive). For the same compound, the GI50 [34] was > 100 µM (inactive), the GI50 [35] was > 100 µM (inactive) and the GI50 [36] was > 100 µM (inactive). The GI50 [37] was 76.9 µM (inactive), the GI50 [38] was > 100 µM (inactive) and the GI50 [39] was 66.4 µM (inactive). For the same compound, the GI50 [40] was > 100 µM (inactive), the GI50 [41] was 31.3 µM (inactive) and the GI50 [42] was 75.2 µM (inactive). For the same compound, the GI50 [43] was 91.4 µM (inactive), the GI50 [44] was 28.1 µM (inactive) and the GI50 [45] was > 100 µM (inactive). The GI50 [46] was 49.4 µM (inactive), the GI50 [47] was > 100 µM (inactive) and the GI50 [58] was > 100 µM (inactive). For the same compound, the GI50 [48] was 61.2 µM (inactive), the GI50 [49] was 54.1 µM (inactive) and the GI50 [50] was 64.4 µM (inactive). For the same compound, the GI50 [51] was > 100 µM (inactive), the GI50 [52] was > 100 µM (inactive) and the GI50 [53] was > 100 µM (inactive). For the same compound, the GI50 [55] was > 100 µM (inactive).
